#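 Briefly, cells in 96-well plates were exposed to five compound concentrations for 48 h, and endpoints were estimated by linear interpolation. Here, GI50 denotes the concentration required for 50% inhibition of growth. TGI is the concentration that stops growth completely.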
# Tests used:
# Experiment in all cases: DTP human tumour cell line panel, 48 h
# SK-OV-3 ovarian = test system: SK-OV-3 ovarian
# SR leukemia = test system: SR leukemia
# BT-549 breast = test system: BT-549 breast
# K-562 leukemia = test system: K-562 leukemia
# A549 NSCLC = test system: A549 NSCLC
# HCC-2998 colon = test system: HCC-2998 colon
# COLO 205 colon = test system: COLO 205 colon
# SNB-19 CNS = test system: SNB-19 CNS
# MOLT-4 leukemia = test system: MOLT-4 leukemia
# NCI-H522 lung = test system: NCI-H522 lung
# SN12C renal = test system: SN12C renal
# DU-145 prostate = test system: DU-145 prostate
# NCI-H226 lung = test system: NCI-H226 lung
# NCI-H460 lung = test system: NCI-H460 lung
# M14 melanoma = test system: M14 melanoma
# A498 renal = test system: A498 renal
# IGROV1 ovarian = test system: IGROV1 ovarian
# OVCAR-8 ovarian = test system: OVCAR-8 ovarian
# MALME-3M melanoma = test system: MALME-3M melanoma
# RPMI-8226 leukemia = test system: RPMI-8226 leukemia
# T-47D breast = test system: T-47D breast
# MCF7 breast = test system: MCF7 breast
# 786-0 renal = test system: 786-0 renal
# KM12 colon = test system: KM12 colon
# HOP-62 NSCLC = test system: HOP-62 NSCLC
# SF-268 CNS = test system: SF-268 CNS
# OVCAR-5 ovarian = test system: OVCAR-5 ovarian
# U251 CNS = test system: U251 CNS
# SK-MEL-2 melanoma = test system: SK-MEL-2 melanoma
# SNB-75 CNS = test system: SNB-75 CNS
# CAKI-1 renal = test system: CAKI-1 renal
# SW-620 colon = test system: SW-620 colon
# MDA-MB-231 breast = test system: MDA-MB-231 breast
# EKVX NSCLC = test system: EKVX NSCLC
# HCT-116 colon = test system: HCT-116 colon
# SK-MEL-5 melanoma = test system: SK-MEL-5 melanoma
# PC-3 prostate = test system: PC-3 prostate
# SF-539 CNS = test system: SF-539 CNS
# MDA-MB-435 = test system: MDA-MB-435
# SF-295 CNS = test system: SF-295 CNS
# UO-31 renal = test system: UO-31 renal
# HS 578T breast = test system: HS 578T breast
# ACHN renal = test system: ACHN renal
# UACC-62 melanoma = test system: UACC-62 melanoma
# OVCAR-4 ovarian = test system: OVCAR-4 ovarian
# LOX IMVI melanoma = test system: LOX IMVI melanoma
# HL-60(TB) leukemia = test system: HL-60(TB) leukemia
# UACC-257 melanoma = test system: UACC-257 melanoma
# CCRF-CEM leukemia = test system: CCRF-CEM leukemia
# SK-MEL-28 melanoma = test system: SK-MEL-28 melanoma
# HOP-92 NSCLC = test system: HOP-92 NSCLC
# HT29 colon = test system: HT29 colon
# HCT-15 colon = test system: HCT-15 colon
smiles,measurement,setting,value
CCNC(=O)N1CCc2cc(OC)c(OCCc3ccc(OC)cc3)cc2C1c1ccc([N+](=O)[O-])cc1C (stereo unspecified),GI50,SK-OV-3 ovarian,2.83 µM
same,TGI,SK-OV-3 ovarian,> 100 µM
same,GI50,SR leukemia,0.327 µM
same,TGI,SR leukemia,> 100 µM
same,GI50,BT-549 breast,1.67 µM
same,TGI,BT-549 breast,6.12 µM
same,GI50,K-562 leukemia,0.381 µM
same,TGI,K-562 leukemia,> 100 µM
same,GI50,A549 NSCLC,0.84 µM
same,TGI,A549 NSCLC,> 100 µM
same,GI50,HCC-2998 colon,1.95 µM
same,TGI,HCC-2998 colon,> 100 µM
same,GI50,COLO 205 colon,0.797 µM
same,TGI,COLO 205 colon,> 100 µM
same,GI50,SNB-19 CNS,1.33 µM
same,TGI,SNB-19 CNS,> 100 µM
same,GI50,MOLT-4 leukemia,0.485 µM
same,TGI,MOLT-4 leukemia,> 100 µM
same,GI50,NCI-H522 lung,0.73 µM
same,TGI,NCI-H522 lung,3.41 µM
same,GI50,SN12C renal,1.84 µM
same,TGI,SN12C renal,> 100 µM
same,GI50,DU-145 prostate,1.87 µM
same,TGI,DU-145 prostate,> 100 µM
same,GI50,NCI-H226 lung,2.09 µM
same,TGI,NCI-H226 lung,> 100 µM
same,GI50,NCI-H460 lung,0.368 µM
same,TGI,NCI-H460 lung,3.3 µM
same,GI50,M14 melanoma,0.759 µM
same,TGI,M14 melanoma,> 100 µM
same,GI50,A498 renal,1.55 µM
same,TGI,A498 renal,6.69 µM
same,GI50,IGROV1 ovarian,0.759 µM
same,TGI,IGROV1 ovarian,> 100 µM
same,GI50,OVCAR-8 ovarian,0.812 µM
same,TGI,OVCAR-8 ovarian,> 100 µM
same,GI50,MALME-3M melanoma,4.12 µM
same,TGI,MALME-3M melanoma,> 100 µM
same,GI50,RPMI-8226 leukemia,0.631 µM
same,TGI,RPMI-8226 leukemia,7.14 µM
same,GI50,T-47D breast,3.34 µM
same,TGI,T-47D breast,> 100 µM
same,GI50,MCF7 breast,0.54 µM
same,TGI,MCF7 breast,> 100 µM
same,GI50,786-0 renal,0.619 µM
same,TGI,786-0 renal,> 100 µM
same,GI50,KM12 colon,4.64 µM
same,TGI,KM12 colon,> 100 µM
same,GI50,HOP-62 NSCLC,2.28 µM
same,TGI,HOP-62 NSCLC,> 100 µM
same,GI50,SF-268 CNS,0.881 µM
same,TGI,SF-268 CNS,> 100 µM
same,GI50,OVCAR-5 ovarian,2.14 µM
same,TGI,OVCAR-5 ovarian,> 100 µM
same,GI50,U251 CNS,0.58 µM
same,TGI,U251 CNS,> 100 µM
same,GI50,SK-MEL-2 melanoma,2.37 µM
same,TGI,SK-MEL-2 melanoma,> 100 µM
same,GI50,SNB-75 CNS,0.68 µM
same,TGI,SNB-75 CNS,6.95 µM
same,GI50,CAKI-1 renal,1.09 µM
same,TGI,CAKI-1 renal,> 100 µM
same,GI50,SW-620 colon,0.551 µM
same,TGI,SW-620 colon,> 100 µM
same,GI50,MDA-MB-231 breast,0.797 µM
same,TGI,MDA-MB-231 breast,> 100 µM
same,GI50,EKVX NSCLC,> 100 µM
same,TGI,EKVX NSCLC,> 100 µM
same,GI50,HCT-116 colon,0.437 µM
same,TGI,HCT-116 colon,> 100 µM
same,GI50,SK-MEL-5 melanoma,0.794 µM
same,TGI,SK-MEL-5 melanoma,3.59 µM
same,GI50,PC-3 prostate,0.559 µM
same,TGI,PC-3 prostate,> 100 µM
same,GI50,SF-539 CNS,0.702 µM
same,TGI,SF-539 CNS,6.77 µM
same,GI50,MDA-MB-435,0.491 µM
same,TGI,MDA-MB-435,> 100 µM
same,GI50,SF-295 CNS,0.576 µM
same,TGI,SF-295 CNS,> 100 µM
same,GI50,UO-31 renal,1.54 µM
same,TGI,UO-31 renal,> 100 µM
same,GI50,HS 578T breast,1.57 µM
same,TGI,HS 578T breast,7.35 µM
same,GI50,ACHN renal,0.875 µM
same,TGI,ACHN renal,> 100 µM
same,GI50,UACC-62 melanoma,0.547 µM
same,TGI,UACC-62 melanoma,> 100 µM
same,GI50,OVCAR-4 ovarian,2.8 µM
same,TGI,OVCAR-4 ovarian,> 100 µM
same,GI50,LOX IMVI melanoma,0.387 µM
same,TGI,LOX IMVI melanoma,7.65 µM
same,GI50,HL-60(TB) leukemia,0.608 µM
same,TGI,HL-60(TB) leukemia,10.6 µM
same,GI50,UACC-257 melanoma,3.54 µM
same,TGI,UACC-257 melanoma,> 100 µM
same,GI50,CCRF-CEM leukemia,0.662 µM
same,TGI,CCRF-CEM leukemia,> 100 µM
same,GI50,SK-MEL-28 melanoma,0.869 µM
same,TGI,SK-MEL-28 melanoma,> 100 µM
same,GI50,HOP-92 NSCLC,1.04 µM
same,TGI,HOP-92 NSCLC,8.03 µM
same,GI50,HT29 colon,0.706 µM
same,TGI,HT29 colon,6.04 µM
same,GI50,HCT-15 colon,0.382 µM
same,TGI,HCT-15 colon,> 100 µM
